Patent publication US8859527B2 (priority 2009, dated 2014)
Like-named read-outs stand apart in the source and are kept apart here.

Key:
[1] = tested on: HL-60 (human leukemia cell line); assay: in vitro growth inhibition of tumor cells, HL-60; type: cell-based; conditions: 48 hours
Description: (§1) The tumor strains are A-549 (human lung adenocarcinoma cell line), BGC-823 (human gastric cancer cell line), C-6 (rat neurogliocytoma cell line), Hep G2 (human hepatic cancer cell line), HL-60 (human leukemia cell line), K-562 (human erythremia cell line) and Hela (human cervical cancer cell line). […] The drug was prepared as a stock solution of 10^−2 M by using physiological saline and diluted into the test solution in a gradient composed of five concentrations: C1 5×10^−5 M, C2 10^−5 M, C3 10^−6 M, C4 10^−7 M and C5 10^−8 M.
(§2) Experimental method: different tumor cells in exponential growth phase are inoculated in 96-well plates in a certain amount and the selected samples are added after the cells are cultured for 24 hours (suspension cells can be directly added after being inoculated), after the cells are incubated at 37° C. and 5% CO2 for another 48 hours, […] is added for further incubation for another 4 hours, and finally the samples are examined on a microplate reader after dissolving with DMSO.

[2] = tested on: Hela (human cervical cancer cell line); assay: in vitro growth inhibition of tumor cells, Hela; type: cell-based; conditions: hela, 48 hours
Description: as §1, §2

[3] = tested on: C-6 (rat neurogliocytoma cell line); assay: in vitro growth inhibition of tumor cells, C-6; type: cell-based; conditions: C6, 48 hours
Description: as §1, §2

[4] = tested on: BGC-823 (human gastric cancer cell line); assay: in vitro growth inhibition of tumor cells, BGC-823; type: cell-based; conditions: 48 hours
Description: as §1, §2

transplanted tumor Heps = tested on: transplanted tumor Heps
Description: (§3) Experimental groups: three dosage groups were set up for DPT, 10, 5 and 2.5 mg/kg; the blank control group: cyclophosphamide (CTX) group, Etoposide group 20 mg/kg.
(§4) Administration route: injection via tail vein, it is administered in a dosage of 0.4 ml/20 g body weight. Administration period: the drug is administrated 24 hours after the inoculation, once every two days for four times in total.
(§5) Experimental methods: 60 ICR mice with standard weight of from 18 to 22 g are inoculated with S-180 or Heps solid tumor according to the test method for transplanted tumors, hypodermic inoculation with 0.2 ml is carried out in the armpit in the anterior limb of every mouse. The body weight is determined 24 hours after the inoculation and they are randomly divided into six groups: the blank control group, the CTX group (20 mg/kg), the Etoposide group (20 mg/kg), the DPT group (10, 5 and 2.5 mg/Kg). The drug is administrated 24 hours after the inoculation once for every two days for 4 times, and tumor-bearing mice are killed on the next after drug withdrawal and their body weights are measured, and the separated tumor mess is weighed, and all of the data are subjected to statistical analyses (t-test).

transplanted tumor S180 = tested on: transplanted tumor S180
Description: as §3, §4, §5

[5] = tested on: human non-small cell lung cancer H460 xenograft tumor; conditions: mouse, in vivo, iv, 20 mg/kg
Description: (§6) The test article: the inclusion complex of DPT and SBE-β-CD, the content is 5.05%. Preparation Method: it is dissolved in a proper amount of saline after gentle shaking and the concentration is 0.4 mg/ml (which is the test solution for the 8 mg/kg group); other concentrations are prepared by diluting the stock solution of 0.4 mg/ml to the required concentration with physiological saline.
(§7) The control article: Etoposide injection produced by Qilu Pharmaceutical Co., Ltd. the batch number is 8060012EV, specification: 5 ml:0.1 g. Preparation Method: Etoposide injection is a kind of transparent sticky liquid and it is diluted with a proper amount of physiological saline and gently shaken and prepared as a homogeneous solution, and the concentration is 1 mg/ml.
(§8) Dosage setting: the high dosage group of DPT is 8 mg/kg, the medium dosage group of DPT is 4 mg/kg and the low dosage group of DPT is 2 mg/kg. The dosage for the positive control group of Etoposide injection is 20 mg/kg.
(§9) Experimental animals: source, germline and strain: BALB/c nude mice are provided by the Institute of Experimental Animals, Chinese Academy of Medical Sciences. Age: 35-40 days; body weight: 18-24 g; gender: male.
(§10) Transplanted tumor: the transplanted tumor for human nonsmall-cell lung cancer H460 in nude mice, and it is established by inoculating the human nonsmall-cell lung cancer H460 cell line hypodermically in the armpit of nude mice. 2×10^6 cells are inoculated.
(§11) Human non-small cell lung cancer H460 cell line in exponential phase of growth is prepared as a cell suspension of 2×10^7/ml under sterile conditions, 0.1 ml thereof is inoculated hypodermically in the right armpit of nude mice. The diameters of the transplanted tumors in the nude mice are measured by a sliding caliper, and the animals are randomly divided into different groups when the tumors grow up to the amount of 100 to 300 mm^3. The antitumor efficacy of the test article is dynamically observed by measuring the diameter of the tumor. The diameters of the tumor are determined once for every two days. The administration volume is 0.4 ml/20 g. The mice are killed 21 days after administration, and the tumors are surgically isolated and weighed. The calculation formula for tumor volume (TV) is as follows: TV=½×a×b^2 Wherein a and b represents for the length and the width, respectively.
(§12) The relative tumor volume (RTV) is calculated according to the measured results, and the calculation formula is as follows: RTV=Vt/V0. Wherein V0 is the tumor size measured during grouping and drug administration (d0), Vt is the tumor size in every measurements. The evaluation parameter for antitumor activity is the relative tumor growth rate T/C (%) which is calculated according to the formula as follows:
(§13) [formula] TRTV: the treatment group RTV; CRTV: the negative control group: RTV.

[6] = tested on: K-562 (human erythremia cell line); assay: in vitro growth inhibition of tumor cells, K-562; type: cell-based; conditions: K562, 48 hours
Description: as §1, §2

[7] = tested on: human non-small cell lung cancer H460 xenograft tumor; conditions: for Tumor volume / RTV / T/C / Gross tumor volume: 20 mg/kg iv
Description: as §6, §7, §8, §9, §10, §11, §12, §13

[8] = tested on: Hep G2 (human hepatic cancer cell line); assay: in vitro growth inhibition of tumor cells, Hep G2; type: cell-based; conditions: HepG2, 48 hours
Description: as §1, §2

[9] = tested on: A-549 (human lung adenocarcinoma cell line); assay: in vitro growth inhibition of tumor cells, A-549; type: cell-based; conditions: A549, 48 hours
Description: as §1, §2

[10] = Heps mice, 20 mg/kg iv, once every two days, four times
[11] = S180 mice, 20 mg/kg iv, once every two days, four times
[12] = H460 nude mice, 20 mg/kg iv three times a week, 9 times, 21 days

COc1cc([C@@H]2c3cc4c(cc3[C@@H](O[C@@H]3O[C@@H]5CO[C@@H](C)O[C@H]5[C@H](O)[C@H]3O)[C@H]3COC(=O)[C@H]23)OCO4)cc(OC)c1O [Etoposide, reference compound]
Inhibition effects on in vitro growth ([1]; 5 × 10^−5M): 94.85% | Inhibition effects on in vitro growth ([1]; 10^−5M): 16.01% | Inhibition effects on in vitro growth ([1]; 10^−6M): 8.45% | Inhibition effects on in vitro growth ([1]; 10^−7M): 3.48% | Inhibition effects on in vitro growth ([1]; 10^−8M): 1.91% | Inhibition effects on in vitro growth ([2]; 5 × 10^−5M): 97.26% | Inhibition effects on in vitro growth ([2]; 10^−5M): 24.71% | Inhibition effects on in vitro growth ([2]; 10^−6M): 6.87% | Inhibition effects on in vitro growth ([2]; 10^−7M): 5.63% | Inhibition effects on in vitro growth ([2]; 10^−8M): 4.35% | Inhibition effects on in vitro growth ([3]; 5 × 10^−5M): 66.2% | Inhibition effects on in vitro growth ([3]; 10^−5M): 59.96% | Inhibition effects on in vitro growth ([3]; 10^−6M): 49.99% | Inhibition effects on in vitro growth ([3]; 10^−7M): 16.67% | Inhibition effects on in vitro growth ([3]; 10^−8M): 9.98% | Inhibition effects on in vitro growth ([4]; 5 × 10^−5M): 61.14% | Inhibition effects on in vitro growth ([4]; 10^−5M): 10.55% | Inhibition effects on in vitro growth ([4]; 10^−6M): 8.15% | Inhibition effects on in vitro growth ([4]; 10^−7M): 7.67% | Inhibition effects on in vitro growth ([4]; 10^−8M): 3.41% | Tumor inhibition rate (transplanted tumor Heps; [10]): 59.31% | Tumor weight (transplanted tumor Heps; [10]): 0.80 ± 0.37 g | Body weight After administration (transplanted tumor Heps; mouse, in vivo, iv, 20 mg/kg): 22.40 ± 2.41 g | Body weight Before administration (transplanted tumor Heps; mouse, in vivo, iv, 20 mg/kg): 21.10 ± 1.37 g | Tumor weight (transplanted tumor S180; [11]): 1.05 ± 0.35 g | Tumor-inhibition rate (transplanted tumor S180; [11]): 43.03% | Body weight After administration (transplanted tumor S180; mouse, in vivo, iv, 20 mg/kg): 23.30 ± 1.83 g | Body weight Before administration (transplanted tumor S180; mouse, in vivo, iv, 20 mg/kg): 19.30 ± 1.06 g | Initial body weight [5]: 22.67 ± 1.37 g | toxicity [5]: obvious toxicity | Inhibition effects on in vitro growth ([6]; 5 × 10^−5M): 67.32% | Inhibition effects on in vitro growth ([6]; 10^−5M): 15.04% | Inhibition effects on in vitro growth ([6]; 10^−6M): 4.45% | Inhibition effects on in vitro growth ([6]; 10^−7M): 3.08% | Inhibition effects on in vitro growth ([6]; 10^−8M): 2.38% | Tumor volume ([7]; 0 d): 275 ± 130 mm^3 | RTV ([7]; 2 d): 1.306 ± 0.356 | T/C ([7]; 2 d): 81.24% | Tumor volume ([7]; 2 d): 352 ± 169 mm^3 | RTV ([7]; 4 d): 2.012 ± 0.744 | T/C ([7]; 4 d): 77.07% | Tumor volume ([7]; 4 d): 534 ± 277 mm^3 | RTV ([7]; 6 d): 2.048 ± 0.441 | T/C ([7]; 6 d): 66.86% | Tumor volume ([7]; 6 d): 531 ± 186 mm^3 | RTV ([7]; 8 d): 2.054 ± 0.776 | T/C ([7]; 8 d): 46.77% | Tumor volume ([7]; 8 d): 539 ± 255 mm^3 | Gross tumor volume ([7]; 10 d): 482 ± 216 mm^3 | RTV ([7]; 10 d): 1.846 ± 0.688 | T/C ([7]; 10 d): 36.90% | Gross tumor volume ([7]; 12 d): 534 ± 254 mm^3 | RTV ([7]; 12 d): 2.189 ± 1.212 | T/C ([7]; 12 d): 29.47% | RTV ([7]; 14 d): 2.898 ± 1.741 | T/C ([7]; 14 d): 34.16% | Tumor volume ([7]; 14 d): 682 ± 311 mm^3 | RTV ([7]; 16 d): 3.115 ± 1.969 | T/C ([7]; 16 d): 31.23% | Tumor volume ([7]; 16 d): 730 ± 384 mm^3 | RTV ([7]; 18 d): 3.876 ± 2.645 | T/C ([7]; 18 d): 34.39% | Tumor volume ([7]; 18 d): 873 ± 407 mm^3 | RTV ([7]; 21 d): 3.706 ± 1.796 | T/C ([7]; 21 d): 32.18% | Tumor volume ([7]; 21 d): 872 ± 305 mm^3 | Tumor weight [7, 12]: 1.27 ± 0.61 g | Tumor-inhibition rate [7, 12]: 61.08% | Inhibition effects on in vitro growth ([8]; 5 × 10^−5M): 97.14% | Inhibition effects on in vitro growth ([8]; 10^−5M): 38.94% | Inhibition effects on in vitro growth ([8]; 10^−6M): 8.71% | Inhibition effects on in vitro growth ([8]; 10^−7M): 2.02% | Inhibition effects on in vitro growth ([8]; 10^−8M): 1.71% | Inhibition effects on in vitro growth ([9]; 5 × 10^−5M): 68.67% | Inhibition effects on in vitro growth ([9]; 10^−5M): 22.99% | Inhibition effects on in vitro growth ([9]; 10^−6M): 5.18% | Inhibition effects on in vitro growth ([9]; 10^−7M): 3.68% | Inhibition effects on in vitro growth ([9]; 10^−8M): 2.3%

O=P1(N(CCCl)CCCl)NCCCO1 (centres unmarked) [CTX, cyclophosphamide, reference compound]
Body weight Before administration (transplanted tumor Heps; Heps mice, 20 mg/kg iv group): 21.30 ± 1.49 g | Body weight After administration (transplanted tumor Heps; [10]): 22.50 ± 3.69 g | Tumor inhibition rate (transplanted tumor Heps; [10]): 66.94% | Tumor weight (transplanted tumor Heps; [10]): 0.65 ± 0.21 g | Body weight Before administration (transplanted tumor S180; S180 mice, 20 mg/kg iv group): 19.80 ± 1.69 g | Body weight After administration (transplanted tumor S180; [11]): 23.00 ± 2.50 g | Tumor weight (transplanted tumor S180; [11]): 0.98 ± 0.22 g | Tumor-inhibition rate (transplanted tumor S180; [11]): 46.77%
